Data as given in ChEMBL document CHEMBL3885861, “Open TG-GATES”.

Species: Rattus norvegicus
Experiment: Open TG-GATES - Regimen: Daily Repeat
Assay type: toxicity, organism-based, Sprague-Dawley
Parameters: regimen Daily Repeat, gender Male, age 6 weeks
Conditions: in vivo, po, route gavage; for APTT / Bas / Eos / Fbg / Hb / Ht / Lym / MCH / MCHC / MCV / Mono / Neu / PT / Plat / RBC / Ret / WBC: tissue Blood; for KIDNEY_L / KIDNEY_R / KIDNEY_TOTAL: tissue Kidney; for LIVER: tissue Liver; for A/G / ALP / ALT / AST / BUN / CRE / Ca / Cl / DBIL / GLC / IP / K / LDH / Na / PL / RALB / TBIL / TC / TG / TP / gamma-GTP: tissue Plasma
[1] = 300 mg/kg, 72 h, dose level Middle, time 3 day
[2] = 300 mg/kg, […], dose level Middle, time 7 day
[3] = 300 mg/kg, […], dose level Middle, time 14 day
[4] = 300 mg/kg, […], dose level Middle, time 28 day
[5] = 1000 mg/kg, 72 h, dose level High, time 3 day
[6] = 1000 mg/kg, […], dose level High, time 7 day
[7] = 1000 mg/kg, […], dose level High, time 14 day
[8] = 1000 mg/kg, […], dose level High, time 28 day

CC[C@@H](CO)NCCN[C@@H](CC)CO [ETHAMBUTOL]
TERMINAL_BW [1]: 239.4 g
APTT [1]: 21.6 s
Bas [1]: 0%
Eos [1]: 1%
Fbg [1]: 330.2 mg/dL
Hb [1]: 13.7 g/dL
Ht [1]: 40%
Lym [1]: 75%
MCH [1]: 21.8 pg
MCHC [1]: 34.3%
MCV [1]: 63.4 fL
Mono [1]: 3%
Neu [1]: 19.4%
PT [1]: 15.9 s
Plat [1]: 113.3 x10_4/uL
RBC [1]: 630 x10_4/ul
Ret [1]: 6.3%
WBC [1]: 92.4 x10_2/uL
KIDNEY_L [1]: 1 g
KIDNEY_R [1]: 1.1 g
KIDNEY_TOTAL [1]: 2.1 g
LIVER [1]: 12.5 g
A/G [1]: 1.3
ALP [1]: 1720.4 IU/L
ALT [1]: 43 IU/L
AST [1]: 71 IU/L
BUN [1]: 17.6 mg/dL
CRE [1]: 0.2 mg/dL
Ca [1]: 10.7 mg/dL
Cl [1]: 108 meq/L
DBIL [1]: 0 mg/dL
GLC [1]: 209.6 mg/dL
IP [1]: 7.6 mg/dL
K [1]: 3.9 meq/L
LDH [1]: 164.2 IU/L
Na [1]: 140.8 meq/L
PL [1]: 163.4 mg/dL
RALB [1]: 3.2 g/dL
TBIL [1]: 0.01 mg/dL
TC [1]: 90.2 mg/dL
TG [1]: 87.6 mg/dL
TP [1]: 5.7 g/dL
gamma-GTP [1]: 1.4 IU/L
TERMINAL_BW [2]: 262.8 g
TERMINAL_BW [3]: 299.9 g
TERMINAL_BW [4]: 296 g
APTT [2]: 20.8 s
Bas [2]: 0%
Eos [2]: 0.8%
Fbg [2]: 303.8 mg/dL
Hb [2]: 14.2 g/dL
Ht [2]: 41.4%
Lym [2]: 82.2%
MCH [2]: 20.7 pg
MCHC [2]: 34.3%
MCV [2]: 60.2 fL
Mono [2]: 2.4%
Neu [2]: 13%
PT [2]: 16.4 s
Plat [2]: 113.9 x10_4/uL
RBC [2]: 688.8 x10_4/ul
Ret [2]: 4.2%
WBC [2]: 98.6 x10_2/uL
APTT [3]: 20.4 s
Bas [3]: 0%
Eos [3]: 1%
Fbg [3]: 274.2 mg/dL
Hb [3]: 14.2 g/dL
Ht [3]: 42.3%
Lym [3]: 82.2%
MCH [3]: 19.2 pg
MCHC [3]: 33.7%
MCV [3]: 57 fL
Mono [3]: 2.4%
Neu [3]: 13.2%
PT [3]: 16.8 s
Plat [3]: 86.9 x10_4/uL
RBC [3]: 742.8 x10_4/ul
Ret [3]: 2.3%
WBC [3]: 118.5 x10_2/uL
APTT [4]: 21.4 s
Bas [4]: 0%
Eos [4]: 1.2%
Fbg [4]: 257.5 mg/dL
Hb [4]: 14.6 g/dL
Ht [4]: 42.3%
Lym [4]: 77.2%
MCH [4]: 17.9 pg
MCHC [4]: 34.5%
MCV [4]: 51.8 fL
Mono [4]: 2.8%
Neu [4]: 17.2%
PT [4]: 17.8 s
Plat [4]: 82.7 x10_4/uL
RBC [4]: 817.8 x10_4/ul
Ret [4]: 2%
WBC [4]: 127.3 x10_2/uL
KIDNEY_L [2]: 1.1 g
KIDNEY_R [2]: 1.1 g
KIDNEY_TOTAL [2]: 2.2 g
KIDNEY_L [3]: 1.3 g
KIDNEY_R [3]: 1.3 g
KIDNEY_TOTAL [3]: 2.6 g
KIDNEY_L [4]: 1.2 g
KIDNEY_R [4]: 1.3 g
KIDNEY_TOTAL [4]: 2.5 g
LIVER [2]: 12.5 g
LIVER [3]: 15.8 g
LIVER [4]: 14.5 g
A/G [2]: 1.1
ALP [2]: 1774.8 IU/L
ALT [2]: 60.2 IU/L
AST [2]: 92.2 IU/L
BUN [2]: 20.4 mg/dL
CRE [2]: 0.2 mg/dL
Ca [2]: 10.2 mg/dL
Cl [2]: 107.4 meq/L
DBIL [2]: 0.002 mg/dL
GLC [2]: 172.2 mg/dL
IP [2]: 7.9 mg/dL
K [2]: 4 meq/L
LDH [2]: 196 IU/L
Na [2]: 142.2 meq/L
PL [2]: 141.4 mg/dL
RALB [2]: 2.8 g/dL
TBIL [2]: 0.026 mg/dL
TC [2]: 73 mg/dL
TG [2]: 43.2 mg/dL
TP [2]: 5.3 g/dL
gamma-GTP [2]: 1.8 IU/L
A/G [3]: 1.1
ALP [3]: 2103.2 IU/L
ALT [3]: 68 IU/L
AST [3]: 115.2 IU/L
BUN [3]: 24.4 mg/dL
CRE [3]: 0.2 mg/dL
Ca [3]: 9.8 mg/dL
Cl [3]: 106.4 meq/L
DBIL [3]: 0.02 mg/dL
GLC [3]: 197 mg/dL
IP [3]: 7.2 mg/dL
K [3]: 4.6 meq/L
LDH [3]: 520.6 IU/L
Na [3]: 139.8 meq/L
PL [3]: 139.8 mg/dL
RALB [3]: 2.6 g/dL
TBIL [3]: 0.042 mg/dL
TC [3]: 79.4 mg/dL
TG [3]: 26.4 mg/dL
TP [3]: 4.9 g/dL
gamma-GTP [3]: 1.8 IU/L
A/G [4]: 1
ALP [4]: 1083.5 IU/L
ALT [4]: 66.5 IU/L
AST [4]: 136 IU/L
BUN [4]: 19.2 mg/dL
CRE [4]: 0.2 mg/dL
Ca [4]: 9.4 mg/dL
Cl [4]: 109.8 meq/L
DBIL [4]: 0.0275 mg/dL
GLC [4]: 209 mg/dL
IP [4]: 6.8 mg/dL
K [4]: 4.2 meq/L
LDH [4]: 602.8 IU/L
Na [4]: 140.5 meq/L
PL [4]: 117.5 mg/dL
RALB [4]: 2.6 g/dL
TBIL [4]: 0.055 mg/dL
TC [4]: 70.5 mg/dL
TG [4]: 24.5 mg/dL
TP [4]: 5.3 g/dL
gamma-GTP [4]: 1.5 IU/L
TERMINAL_BW [5]: 233.6 g
APTT [5]: 19.9 s
Bas [5]: 0%
Eos [5]: 0.8%
Fbg [5]: 303.8 mg/dL
Hb [5]: 13.5 g/dL
Ht [5]: 38.6%
Lym [5]: 77.8%
MCH [5]: 21.4 pg
MCHC [5]: 35%
MCV [5]: 61 fL
Mono [5]: 3.2%
Neu [5]: 16.6%
PT [5]: 16.3 s
Plat [5]: 122.5 x10_4/uL
RBC [5]: 633.2 x10_4/ul
Ret [5]: 4.8%
WBC [5]: 84.1 x10_2/uL
KIDNEY_L [5]: 1 g
KIDNEY_R [5]: 1.1 g
KIDNEY_TOTAL [5]: 2.1 g
LIVER [5]: 12.7 g
A/G [5]: 1.2
ALP [5]: 1656 IU/L
ALT [5]: 49 IU/L
AST [5]: 88.2 IU/L
BUN [5]: 21 mg/dL
CRE [5]: 0.2 mg/dL
Ca [5]: 10.6 mg/dL
Cl [5]: 108 meq/L
DBIL [5]: 0.002 mg/dL
GLC [5]: 177.8 mg/dL
IP [5]: 8.1 mg/dL
K [5]: 4 meq/L
LDH [5]: 160.8 IU/L
Na [5]: 140 meq/L
PL [5]: 163.8 mg/dL
RALB [5]: 3 g/dL
TBIL [5]: 0.026 mg/dL
TC [5]: 99.6 mg/dL
TG [5]: 41.2 mg/dL
TP [5]: 5.5 g/dL
gamma-GTP [5]: 1.6 IU/L
TERMINAL_BW [6]: 220.6 g
TERMINAL_BW [7]: 208.8 g
TERMINAL_BW [8]: 151.9 g
APTT [6]: 19.7 s
Bas [6]: 0%
Eos [6]: 0.8%
Fbg [6]: 167.4 mg/dL
Hb [6]: 16.1 g/dL
Ht [6]: 46.3%
Lym [6]: 73.8%
MCH [6]: 20.8 pg
MCHC [6]: 34.7%
MCV [6]: 59.8 fL
Mono [6]: 3.4%
Neu [6]: 19.4%
PT [6]: 19.6 s
Plat [6]: 116.6 x10_4/uL
RBC [6]: 774.8 x10_4/ul
Ret [6]: 2%
WBC [6]: 71 x10_2/uL
APTT [7]: 21.5 s
Bas [7]: 0%
Eos [7]: 1.2%
Fbg [7]: 228 mg/dL
Hb [7]: 15.5 g/dL
Ht [7]: 44.6%
Lym [7]: 83.2%
MCH [7]: 19.4 pg
MCHC [7]: 34.8%
MCV [7]: 55.6 fL
Mono [7]: 2.2%
Neu [7]: 12.4%
PT [7]: 18.1 s
Plat [7]: 126 x10_4/uL
RBC [7]: 800.4 x10_4/ul
Ret [7]: 0.5%
WBC [7]: 95.8 x10_2/uL
APTT [8]: 27.6 s
Bas [8]: 0%
Eos [8]: 0.3%
Fbg [8]: 252 mg/dL
Hb [8]: 17.2 g/dL
Ht [8]: 49.9%
Lym [8]: 41.3%
MCH [8]: 18 pg
MCHC [8]: 34.6%
MCV [8]: 52 fL
Mono [8]: 8.3%
Neu [8]: 46.7%
PT [8]: 19.9 s
Plat [8]: 105.7 x10_4/uL
RBC [8]: 960 x10_4/ul
Ret [8]: 0.7%
WBC [8]: 102.9 x10_2/uL
KIDNEY_L [6]: 1 g
KIDNEY_R [6]: 1.1 g
KIDNEY_TOTAL [6]: 2.1 g
KIDNEY_L [7]: 1 g
KIDNEY_R [7]: 1 g
KIDNEY_TOTAL [7]: 2 g
KIDNEY_L [8]: 0.9 g
KIDNEY_R [8]: 0.9 g
KIDNEY_TOTAL [8]: 1.8 g
LIVER [6]: 10.6 g
LIVER [7]: 9.2 g
LIVER [8]: 6.7 g
A/G [6]: 1.2
ALP [6]: 1664.8 IU/L
ALT [6]: 76.6 IU/L
AST [6]: 165.4 IU/L
BUN [6]: 22.2 mg/dL
CRE [6]: 0.2 mg/dL
Ca [6]: 9.3 mg/dL
Cl [6]: 107.4 meq/L
DBIL [6]: 0.3 mg/dL
GLC [6]: 145.2 mg/dL
IP [6]: 8.3 mg/dL
K [6]: 4.6 meq/L
LDH [6]: 334 IU/L
Na [6]: 138.8 meq/L
PL [6]: 108 mg/dL
RALB [6]: 2.4 g/dL
TBIL [6]: 0.3 mg/dL
TC [6]: 59.6 mg/dL
TG [6]: 15.6 mg/dL
TP [6]: 4.3 g/dL
gamma-GTP [6]: 1.4 IU/L
A/G [7]: 1.1
ALP [7]: 1208.4 IU/L
ALT [7]: 53 IU/L
AST [7]: 108.6 IU/L
BUN [7]: 21.8 mg/dL
CRE [7]: 0.2 mg/dL
Ca [7]: 9.4 mg/dL
Cl [7]: 108.6 meq/L
DBIL [7]: 0.068 mg/dL
GLC [7]: 155.2 mg/dL
IP [7]: 6.8 mg/dL
K [7]: 4.1 meq/L
LDH [7]: 178.8 IU/L
Na [7]: 139.4 meq/L
PL [7]: 112.6 mg/dL
RALB [7]: 2.4 g/dL
TBIL [7]: 0.08 mg/dL
TC [7]: 61.6 mg/dL
TG [7]: 19 mg/dL
TP [7]: 4.6 g/dL
gamma-GTP [7]: 3.6 IU/L
A/G [8]: 1.1
ALP [8]: 564 IU/L
ALT [8]: 45.3 IU/L
AST [8]: 342 IU/L
BUN [8]: 34 mg/dL
CRE [8]: 0.2 mg/dL
Ca [8]: 9.8 mg/dL
Cl [8]: 116.7 meq/L
DBIL [8]: 0.1 mg/dL
GLC [8]: 321.7 mg/dL
IP [8]: 10.9 mg/dL
K [8]: 4.3 meq/L
LDH [8]: 600.7 IU/L
Na [8]: 148 meq/L
PL [8]: 102 mg/dL
RALB [8]: 2.9 g/dL
TBIL [8]: 0.2 mg/dL
TC [8]: 60 mg/dL
TG [8]: 22.3 mg/dL
TP [8]: 5.5 g/dL
gamma-GTP [8]: 5.7 IU/L
